From ChEMBL document CHEMBL1201862, “PubChem BioAssay data set” (2004) come the findings set out here.

Test in all cases: NCI-60 cell line screen, 48 h
The subject of experiment [1] is SF-539.
For experiment [2], the system named is A498.
Experiment [3] deals with SK-MEL-28.
The test system of experiment [4] is PC-3.
The test system of experiment [5] is EKVX.
The test system of experiment [6] is HL-60.
Experiment [7] deals with HOP-62.
Experiment [8] concerns TK-10.
The subject of experiment [9] is MDA-MB-231.
In experiment [10] the test system is NCI-H522.
The test system of experiment [11] is NCI-H226.
The test system of experiment [12] is MCF7.
In experiment [13] the test system is CCRF-CEM.
Experiment [14] concerns HCT-15.
For experiment [15], the system named is OVCAR-3.
In experiment [16] the test system is OVCAR-5.
For experiment [17], the system named is MDA-N.
Experiment [18] relates to SF-268.
The test system of experiment [19] is LOX IMVI.
Experiment [20] concerns MOLT-4.

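Briefly, cells in 96-well plates were exposed to five compound concentrations for 48 h, and endpoints were estimated by linear interpolation. At the GI50, growth is halved.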 Active and inactive are the calls of the source. No stated cut-off is given here; in the data, active = GI50 up to about 1.1 µM and inactive = higher.

For `COC(=O)C(Cc1ccc2c(c1)CCC2)Cc1ccc2c(c1)CCC2`, the GI50 in experiment [1] was > 100 µM (inactive); in experiment [2] it was 38.1 µM (inactive); in [3] it was 94.4 µM (inactive); in [4] it was 73.3 µM (inactive); in [5], 44.8 µM (inactive); in [6], 23 µM (inactive). The GI50 in experiment [7] is > 100 µM (inactive); in experiment [8] it was > 100 µM (inactive); in experiment [9] it was > 100 µM (inactive); in experiment [10], 32.9 µM (inactive); in [11] it was 42.5 µM (inactive); in [12] it was 31.5 µM (inactive). Further, the GI50 was 32.4 µM (inactive) in [13]; 89.7 µM in [14]; 85.1 µM (inactive) in [15]; > 100 µM (inactive) in experiment [16]; 59.3 µM (inactive) in experiment [17]; 48.6 µM (inactive) in experiment [18]. The GI50 in experiment [19] was 20.8 µM (inactive); in [20], 40.3 µM (inactive).
In the case of `CSC12c3cc(C)n(-c4ccc(I)cc4)c3CC(C)(C)CN1C(=O)C2Oc1ccccc1` (stereo not given), the GI50 is > 100 µM (inactive) in experiment [1]; 97.5 µM (inactive) in experiment [2]; > 100 µM (inactive) in [3]; 98.6 µM (inactive) in experiment [4]; > 67 µM (inactive) in experiment [5]; 93.3 µM (inactive) in [6]. The GI50 in experiment [7] is > 100 µM (inactive); in experiment [8], > 100 µM (inactive); in experiment [9], > 100 µM (inactive); in experiment [10] it was > 100 µM (inactive); in [11], > 100 µM (inactive); in [12], 14.1 µM (inactive). The GI50 in experiment [13] was > 100 µM (inactive); in experiment [14], greater than 100 µM; in experiment [15], > 100 µM (inactive); in experiment [16] it was > 100 µM (inactive); in experiment [17], > 100 µM (inactive); in experiment [18], > 100 µM (inactive). The GI50 was > 100 µM (inactive) in [19] and > 63.1 µM (inactive) in [20].
As for `CC(C)=CC1CC(C)C2(CCC3(C)CC4C(C(=O)CC4(C)O)/C(C=O)=C\CC32)O1` (stereo not given), the GI50 in [1] was 0.0933 µM (active); in [2] it was 0.278 µM (active); in experiment [3], 0.104 µM (active); in experiment [4], 0.038 µM (active); in experiment [5], 0.154 µM (active); in experiment [6] it was < 0.0173 µM (active). For the same molecule, the GI50 was 0.126 µM (active) in experiment [7]; 0.0235 µM (active) in [8]; 0.0968 µM (active) in experiment [9]; 0.028 µM (active) in experiment [10]; 0.0689 µM (active) in experiment [11]; 0.0675 µM (active) in [12]. For the same molecule, the GI50 in [13] is 0.0179 µM (active); in experiment [14], 0.0243 µM; in experiment [15], 0.0224 µM (active); in [16], 0.14 µM (active); in experiment [17] it was 0.112 µM (active); in experiment [18], 0.136 µM (active). In addition, the GI50 in experiment [19] is 0.0582 µM (active); in [20], < 0.0153 µM (active).
Turning to `C=C(C)C1CCC2(C)C1CCC1(C)C2CCC2C3(C)C4OC(OC4=O)C(C)(C)C3CCC21C` (stereo not given), the GI50 was > 100 µM (inactive) in experiment [1]; > 100 µM (inactive) in [2]; > 100 µM (inactive) in experiment [3]; > 100 µM (inactive) in experiment [4]; > 100 µM (inactive) in experiment [5]; 47.3 µM (inactive) in experiment [6]. Further, the GI50 was > 100 µM (inactive) in experiment [7]; > 100 µM (inactive) in [8]; > 100 µM (inactive) in [9]; 14.6 µM (inactive) in experiment [10]; > 100 µM (inactive) in experiment [11]; > 100 µM (inactive) in [12]. The GI50 in experiment [13] was 80.4 µM (inactive); in experiment [14], greater than 100 µM; in [15] it was > 100 µM (inactive); in experiment [16] it was > 100 µM (inactive); in [17], > 100 µM (inactive); in [18], > 100 µM (inactive). Besides, the GI50 in experiment [19] and in experiment [20] was > 100 µM (inactive) throughout.
In the case of `COS(C)(=O)=O` [METHANESULFONIC ACID METHYL ESTER], the GI50 in experiment [1], in experiment [2], in [3], in [4], in experiment [5] and in experiment [6] was > 2 µM (inactive) throughout. Besides, the GI50 in experiment [7], in [8], in experiment [9], in [10], in experiment [11] and in [12] was > 2 µM (inactive) in each case. In addition, the GI50 in [13] was > 2 µM (inactive); in experiment [14], greater than 2 µM; in experiment [15], > 2 µM (inactive); in [16], > 2 µM (inactive); in experiment [17], > 2 µM (inactive); in experiment [18] it was > 2 µM (inactive). Moreover, the GI50 in experiment [19] and in experiment [20] was > 2 µM (inactive) throughout.
For `COC(=O)[C@@H](COC(=O)/C=C/c1ccc(OC(C)=O)c(OC(C)=O)c1)NC(=O)/C=C/c1ccc(OC(C)=O)c(OC(C)=O)c1`, the GI50 is 19 µM (inactive) in experiment [1]; 80.9 µM (inactive) in [2]; 70.8 µM (inactive) in experiment [3]; 23.1 µM (inactive) in experiment [4]; 16.3 µM (inactive) in [5]; 18.7 µM (inactive) in [6]. Moreover, the GI50 was 25.6 µM (inactive) in experiment [7]; 22.6 µM (inactive) in experiment [9]; 13.2 µM (inactive) in [10]; 35.6 µM (inactive) in experiment [11]; 33.9 µM (inactive) in experiment [12]; 9.98 µM (inactive) in experiment [13]. For the same molecule, the GI50 in experiment [14] is 19.7 µM; in experiment [15], 20.5 µM (inactive); in [16], 45.8 µM (inactive); in experiment [17] it was 18.3 µM (inactive); in [18], 29.9 µM (inactive); in [19], 11.3 µM (inactive). Besides, the GI50 in experiment [20] was 38.5 µM (inactive).
For `CO[C@@H]1C[C@H](OC(N)=O)[C@@H]2C=C[C@@H]3/C=C(C)/C=C/[C@@H](C)[C@H]([C@H](C)[C@H](O)[C@@H](C)NC(C)=O)OC(=O)/C=C/C=C(C)\C=C\[C@]3(C)[C@@H]2C1`, the GI50 in experiment [1] was < 0.01 µM (active); in experiment [2], < 0.01 µM (active); in experiment [3] it was < 0.01 µM (active); in experiment [4], < 0.01 µM (active); in experiment [5], 1.24 µM (inactive); in experiment [6] it was < 0.01 µM (active). Further, the GI50 in [7] was < 0.01 µM (active); in experiment [9] it was < 0.0316 µM (active); in experiment [10] it was < 0.01 µM (active); in experiment [11], < 0.01 µM (active); in experiment [12] it was < 0.01 µM (active); in [13], 0.322 µM (active). The GI50 is less than 0.01 µM in experiment [14]; < 0.0436 µM (active) in [15]; 1.42 µM (inactive) in [16]; < 0.01 µM (active) in [17]; 0.767 µM (active) in [18]; < 0.01 µM (active) in [19]. The GI50 in experiment [20] is 0.332 µM (active).
`Cc1ccc(S(=O)(=O)N2C[C@](O)(c3ccccc3)[C@H]2C)cc1`: the GI50 in experiment [1] is > 100 µM (inactive); in [2], > 100 µM (inactive); in experiment [3] it was > 100 µM (inactive); in experiment [4], > 100 µM (inactive); in experiment [5], > 100 µM (inactive); in [6], 72.8 µM (inactive). For the same molecule, the GI50 in [7], in experiment [8], in [9], in experiment [10], in [11] and in [12] was > 100 µM (inactive) each time. Further, the GI50 was 26.4 µM (inactive) in experiment [13]; greater than 100 µM in experiment [14]; > 100 µM (inactive) in experiment [16]; > 100 µM (inactive) in [17]; > 100 µM (inactive) in [18]; > 100 µM (inactive) in [19]. Further, the GI50 in experiment [20] was 44.2 µM (inactive).
As for `CCCCCCCCCCCCCCCCCCN(C)C(COC)COP(=O)([O-])OCC[N+](C)(C)C` (stereo not given), the GI50 in experiment [1] is 7.01 µM (inactive); in experiment [2], 7.38 µM (inactive); in [3], 18.5 µM (inactive); in experiment [4], 1.53 µM (inactive); in experiment [5] it was 17.5 µM (inactive); in experiment [6] it was 1.48 µM (inactive). The GI50 in [7] is 3.09 µM (inactive); in experiment [8] it was 1.84 µM (inactive); in experiment [9] it was 5.73 µM (inactive); in experiment [10], 2.69 µM (inactive); in experiment [11], 3.58 µM (inactive); in [12] it was 10.1 µM (inactive). The GI50 in experiment [13] is 2.18 µM (inactive); in experiment [15] it was 7.24 µM (inactive); in experiment [16], 2.34 µM (inactive); in experiment [17], 15.6 µM (inactive); in [18], 3.24 µM (inactive); in [19] it was 4.49 µM (inactive). In addition, the GI50 in experiment [20] is 1.82 µM (inactive).
Take `[N-]=[N+]=Nc1cc(=O)[nH]nc1-c1ccccc1`: the GI50 in experiment [1], in experiment [2], in experiment [3], in experiment [4], in [5] and in [6] was > 100 µM (inactive) throughout. Besides, the GI50 in [7], in experiment [8], in experiment [9], in experiment [10], in [11] and in experiment [12] was > 100 µM (inactive) each time. In addition, the GI50 is > 100 µM (inactive) in experiment [13]; greater than 100 µM in experiment [14]; > 100 µM (inactive) in [15]; > 100 µM (inactive) in experiment [17]; > 100 µM (inactive) in [18]; > 100 µM (inactive) in [19]. Besides, in experiment [20], the GI50 was > 100 µM (inactive).
